These results are taken from patent US7074789B2, “Kinase inhibitors” (Amgen Inc., priority 1999, dated 2006).

A value given as a limit tells only on which side of the number the result lay.

Format in all cases: biochemical
One experiment addresses T1, Lck (Homo sapiens, UniProt P06239).
T1 construct: Kinases are expressed as either kinase domains or full length constructs; made in house
Description: Kinase inhibition assay (33P transfer), Lck. To be noted: Table 3, class symbols; read-out: Lck-1. Summed up:
(§1)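 Filterless plate radiometric format: immobilized poly(Glu,Tyr) 4:1 or poly(Arg,Ser) 3:1, 33P-labelled ATP, tagged recombinant kinase (some with regulatory partners). Incorporated label counted after phosphoric acid wash.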

Another experiment deals with T2, Zap-70 (Homo sapiens, UniProt P43403).
T2 construct: Kinases are expressed as either kinase domains or full length constructs; made in house
T2 sequence (P43403 1-619): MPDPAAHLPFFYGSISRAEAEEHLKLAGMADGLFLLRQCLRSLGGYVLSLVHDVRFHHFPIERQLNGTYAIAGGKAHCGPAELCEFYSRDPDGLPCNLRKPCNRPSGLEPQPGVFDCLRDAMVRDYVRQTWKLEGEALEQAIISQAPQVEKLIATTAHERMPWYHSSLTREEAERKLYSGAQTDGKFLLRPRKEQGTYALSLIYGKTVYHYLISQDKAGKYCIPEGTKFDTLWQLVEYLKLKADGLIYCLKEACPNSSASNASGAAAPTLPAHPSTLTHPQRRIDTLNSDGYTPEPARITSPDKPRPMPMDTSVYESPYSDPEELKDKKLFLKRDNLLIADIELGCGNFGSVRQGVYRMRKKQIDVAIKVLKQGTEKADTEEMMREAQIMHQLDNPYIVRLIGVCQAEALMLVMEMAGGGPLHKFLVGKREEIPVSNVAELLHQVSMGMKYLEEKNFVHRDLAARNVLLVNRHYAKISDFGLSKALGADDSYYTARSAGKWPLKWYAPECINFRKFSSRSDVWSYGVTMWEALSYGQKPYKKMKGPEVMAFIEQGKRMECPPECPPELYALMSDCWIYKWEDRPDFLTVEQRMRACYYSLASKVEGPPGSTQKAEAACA
The experiment can be described thus: Kinase inhibition assay (33P transfer), Zap-70. To be noted: Table 3, class symbols; read-out: Zap-1. Summed up: as §1

For another experiment, the target named is T3, Itk (Homo sapiens, UniProt Q08881).
T3 construct: Kinases are expressed as either kinase domains or full length constructs; made in house
T3 sequence (Q08881 1-620): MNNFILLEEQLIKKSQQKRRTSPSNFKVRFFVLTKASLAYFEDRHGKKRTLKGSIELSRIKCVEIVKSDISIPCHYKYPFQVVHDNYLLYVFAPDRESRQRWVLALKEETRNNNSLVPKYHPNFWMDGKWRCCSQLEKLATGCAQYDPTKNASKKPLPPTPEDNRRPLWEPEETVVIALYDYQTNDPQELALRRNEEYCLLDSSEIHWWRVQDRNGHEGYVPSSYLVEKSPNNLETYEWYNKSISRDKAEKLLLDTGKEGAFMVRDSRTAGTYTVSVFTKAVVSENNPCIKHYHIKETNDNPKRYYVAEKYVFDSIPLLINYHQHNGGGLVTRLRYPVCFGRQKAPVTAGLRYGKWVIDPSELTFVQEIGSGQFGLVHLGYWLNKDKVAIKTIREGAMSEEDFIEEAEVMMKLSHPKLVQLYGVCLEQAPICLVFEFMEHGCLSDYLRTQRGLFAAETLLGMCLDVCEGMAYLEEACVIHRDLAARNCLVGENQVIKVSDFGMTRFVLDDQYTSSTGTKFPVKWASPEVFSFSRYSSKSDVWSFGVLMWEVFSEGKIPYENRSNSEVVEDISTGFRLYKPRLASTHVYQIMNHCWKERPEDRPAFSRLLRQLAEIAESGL
The experiment can be described thus: Kinase inhibition assay (33P transfer), Itk. The note with it: Table 3, class symbols; read-out: Itk-1. Summed up: (§2)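 Kinase domains or full-length enzymes, GST- or polyHis-tagged, were expressed in E. coli or baculovirus High Five cells and affinity-purified. Transfer of 33PO4 from ATP onto plate-bound poly(Glu,Tyr) 4:1 or poly(Arg,Ser) 3:1 was counted by liquid scintillation after a 0.5% phosphoric acid wash. IC50 = concentration halving incorporation.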

Another experiment concerns the target T4, EGFR (Homo sapiens, UniProt P00533).
T4 construct: Kinases are expressed as either kinase domains or full length constructs; made in house
The experiment can be described thus: Kinase inhibition assay (33P transfer), EGFR. The note with it: Table 2, class symbols A-E; read-out: EGFR-1. Summed up: as §2

Another experiment has as its target T5, ErbB2 (Homo sapiens, UniProt P04626).
T5 construct: Kinases are expressed as either kinase domains or full length constructs; made in house
The experiment can be described thus: Kinase inhibition assay (33P transfer), ErbB2. The note with it: read-out: ErbB2-2. A digest of the protocol:
as §2

In another experiment the target is T6, Kdr (Homo sapiens, UniProt P35968).
T6 construct: Kinases are expressed as either kinase domains or full length constructs; made in house
The experiment can be described thus: Kinase inhibition assay (33P transfer), Kdr. To be noted: Table 3, class symbols; read-out: KDR-1. Summed up:
as §1

The next experiment has as its target T7, c-Met (Homo sapiens, UniProt P08581).
T7 construct: Kinases are expressed as either kinase domains or full length constructs; made in house
The experiment can be described thus: Kinase inhibition assay (33P transfer), c-Met. To be noted: Table 2, class symbols A-E; read-out: Met-1. A digest of the protocol:
as §2

The next experiment has as its target T8, AKT (Homo sapiens, UniProt Q9Y243).
T8 construct: Kinases are expressed as either kinase domains or full length constructs; made in house
The experiment can be described thus: Kinase inhibition assay (33P transfer), AKT. The note with it: Table 2, class symbols A-E; read-out: AKT3-1. A digest of the protocol: as §1

The next experiment has as its target T9, IGFR-1 (Homo sapiens, UniProt P08069).
T9 construct: Kinases are expressed as either kinase domains or full length constructs; made in house
The experiment can be described thus: Kinase inhibition assay (33P transfer), IGFR-1. To be noted: Table 2, class symbols A-E.

The next experiment addresses T10, PDGFRB (Homo sapiens, UniProt P09619).
T10 construct: Kinases are expressed as either kinase domains or full length constructs; made in house
The experiment can be described thus: Kinase inhibition assay (33P transfer), PDGFRB. To be noted: read-out: PDGFRB-1.

T9 sequence (P08069 31-1367): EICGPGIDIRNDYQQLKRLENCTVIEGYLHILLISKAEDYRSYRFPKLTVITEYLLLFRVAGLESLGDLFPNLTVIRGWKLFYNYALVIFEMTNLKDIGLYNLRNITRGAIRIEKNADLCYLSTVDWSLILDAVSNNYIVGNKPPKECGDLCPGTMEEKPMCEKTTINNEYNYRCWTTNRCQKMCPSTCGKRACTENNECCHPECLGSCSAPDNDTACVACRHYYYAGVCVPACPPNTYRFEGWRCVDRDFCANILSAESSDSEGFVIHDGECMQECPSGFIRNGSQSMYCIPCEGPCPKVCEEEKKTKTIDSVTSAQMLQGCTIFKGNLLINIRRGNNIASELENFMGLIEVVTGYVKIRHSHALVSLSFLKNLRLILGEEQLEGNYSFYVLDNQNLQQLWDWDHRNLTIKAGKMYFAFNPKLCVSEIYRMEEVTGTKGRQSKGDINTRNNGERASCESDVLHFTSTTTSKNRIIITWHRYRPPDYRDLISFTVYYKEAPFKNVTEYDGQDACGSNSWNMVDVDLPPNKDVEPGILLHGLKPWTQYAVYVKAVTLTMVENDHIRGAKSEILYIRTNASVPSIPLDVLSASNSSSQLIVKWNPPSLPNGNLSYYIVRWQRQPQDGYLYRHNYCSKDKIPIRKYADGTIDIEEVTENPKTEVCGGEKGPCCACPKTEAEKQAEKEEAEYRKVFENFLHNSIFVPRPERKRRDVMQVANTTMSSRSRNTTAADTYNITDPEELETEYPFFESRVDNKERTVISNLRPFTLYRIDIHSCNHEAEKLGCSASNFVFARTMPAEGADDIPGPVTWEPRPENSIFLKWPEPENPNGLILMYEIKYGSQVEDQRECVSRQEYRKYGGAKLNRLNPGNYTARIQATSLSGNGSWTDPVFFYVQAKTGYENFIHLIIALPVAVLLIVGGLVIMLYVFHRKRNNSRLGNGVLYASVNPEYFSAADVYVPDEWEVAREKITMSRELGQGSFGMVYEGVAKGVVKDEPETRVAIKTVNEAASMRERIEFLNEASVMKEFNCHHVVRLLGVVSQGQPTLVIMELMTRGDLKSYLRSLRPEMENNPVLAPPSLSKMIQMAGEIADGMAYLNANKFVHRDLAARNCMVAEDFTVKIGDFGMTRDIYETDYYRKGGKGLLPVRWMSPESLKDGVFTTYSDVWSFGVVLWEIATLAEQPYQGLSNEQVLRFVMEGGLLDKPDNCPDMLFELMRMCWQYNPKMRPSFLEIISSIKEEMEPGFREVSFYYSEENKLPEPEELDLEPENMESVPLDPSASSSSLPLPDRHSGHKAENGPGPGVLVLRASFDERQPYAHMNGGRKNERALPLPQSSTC
T8 sequence (Q9Y243 whole entry, the tested form may be a part): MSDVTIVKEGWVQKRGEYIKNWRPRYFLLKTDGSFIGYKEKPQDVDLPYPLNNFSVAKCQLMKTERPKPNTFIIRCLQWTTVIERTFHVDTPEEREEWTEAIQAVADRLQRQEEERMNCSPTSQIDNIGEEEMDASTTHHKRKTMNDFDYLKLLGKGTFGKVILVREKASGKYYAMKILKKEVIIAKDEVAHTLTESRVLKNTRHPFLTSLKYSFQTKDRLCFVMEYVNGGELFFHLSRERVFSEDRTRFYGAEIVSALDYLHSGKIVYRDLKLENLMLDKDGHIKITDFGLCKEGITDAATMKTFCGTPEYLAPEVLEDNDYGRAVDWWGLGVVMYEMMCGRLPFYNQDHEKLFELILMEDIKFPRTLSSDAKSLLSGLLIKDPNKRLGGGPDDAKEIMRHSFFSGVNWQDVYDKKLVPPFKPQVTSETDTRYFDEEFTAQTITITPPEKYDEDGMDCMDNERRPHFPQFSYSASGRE
T4 sequence (P00533 25-1210, species assumed): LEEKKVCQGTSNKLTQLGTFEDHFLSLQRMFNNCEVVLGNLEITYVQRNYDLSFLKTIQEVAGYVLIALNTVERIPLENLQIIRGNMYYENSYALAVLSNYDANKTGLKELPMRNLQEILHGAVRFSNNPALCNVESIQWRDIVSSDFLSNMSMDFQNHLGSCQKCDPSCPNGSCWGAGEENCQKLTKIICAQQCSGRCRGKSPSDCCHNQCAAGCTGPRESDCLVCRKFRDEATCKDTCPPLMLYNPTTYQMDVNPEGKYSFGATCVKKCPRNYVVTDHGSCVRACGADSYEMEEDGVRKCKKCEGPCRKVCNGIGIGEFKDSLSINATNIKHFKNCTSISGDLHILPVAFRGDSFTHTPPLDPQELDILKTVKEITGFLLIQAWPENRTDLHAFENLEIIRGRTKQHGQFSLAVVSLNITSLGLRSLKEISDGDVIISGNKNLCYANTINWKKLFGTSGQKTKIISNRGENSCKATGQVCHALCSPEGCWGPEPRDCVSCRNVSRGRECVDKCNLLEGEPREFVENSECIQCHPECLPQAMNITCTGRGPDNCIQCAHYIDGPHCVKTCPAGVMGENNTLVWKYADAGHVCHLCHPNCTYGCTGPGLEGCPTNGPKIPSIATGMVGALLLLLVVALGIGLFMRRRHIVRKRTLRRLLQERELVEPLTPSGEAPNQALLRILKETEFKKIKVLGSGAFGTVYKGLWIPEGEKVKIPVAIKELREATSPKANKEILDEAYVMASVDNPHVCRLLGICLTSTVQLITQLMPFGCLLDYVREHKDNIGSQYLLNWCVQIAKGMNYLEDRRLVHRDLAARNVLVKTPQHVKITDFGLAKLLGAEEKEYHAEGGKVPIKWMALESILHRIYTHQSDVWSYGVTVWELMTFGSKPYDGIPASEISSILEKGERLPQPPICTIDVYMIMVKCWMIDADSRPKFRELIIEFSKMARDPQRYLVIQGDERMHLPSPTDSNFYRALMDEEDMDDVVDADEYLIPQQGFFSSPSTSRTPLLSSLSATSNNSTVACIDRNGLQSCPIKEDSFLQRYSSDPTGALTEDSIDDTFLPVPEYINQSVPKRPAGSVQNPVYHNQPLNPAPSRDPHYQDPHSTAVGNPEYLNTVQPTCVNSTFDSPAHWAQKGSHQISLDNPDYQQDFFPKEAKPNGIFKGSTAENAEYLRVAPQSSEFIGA
T7 sequence (P08581 25-1390): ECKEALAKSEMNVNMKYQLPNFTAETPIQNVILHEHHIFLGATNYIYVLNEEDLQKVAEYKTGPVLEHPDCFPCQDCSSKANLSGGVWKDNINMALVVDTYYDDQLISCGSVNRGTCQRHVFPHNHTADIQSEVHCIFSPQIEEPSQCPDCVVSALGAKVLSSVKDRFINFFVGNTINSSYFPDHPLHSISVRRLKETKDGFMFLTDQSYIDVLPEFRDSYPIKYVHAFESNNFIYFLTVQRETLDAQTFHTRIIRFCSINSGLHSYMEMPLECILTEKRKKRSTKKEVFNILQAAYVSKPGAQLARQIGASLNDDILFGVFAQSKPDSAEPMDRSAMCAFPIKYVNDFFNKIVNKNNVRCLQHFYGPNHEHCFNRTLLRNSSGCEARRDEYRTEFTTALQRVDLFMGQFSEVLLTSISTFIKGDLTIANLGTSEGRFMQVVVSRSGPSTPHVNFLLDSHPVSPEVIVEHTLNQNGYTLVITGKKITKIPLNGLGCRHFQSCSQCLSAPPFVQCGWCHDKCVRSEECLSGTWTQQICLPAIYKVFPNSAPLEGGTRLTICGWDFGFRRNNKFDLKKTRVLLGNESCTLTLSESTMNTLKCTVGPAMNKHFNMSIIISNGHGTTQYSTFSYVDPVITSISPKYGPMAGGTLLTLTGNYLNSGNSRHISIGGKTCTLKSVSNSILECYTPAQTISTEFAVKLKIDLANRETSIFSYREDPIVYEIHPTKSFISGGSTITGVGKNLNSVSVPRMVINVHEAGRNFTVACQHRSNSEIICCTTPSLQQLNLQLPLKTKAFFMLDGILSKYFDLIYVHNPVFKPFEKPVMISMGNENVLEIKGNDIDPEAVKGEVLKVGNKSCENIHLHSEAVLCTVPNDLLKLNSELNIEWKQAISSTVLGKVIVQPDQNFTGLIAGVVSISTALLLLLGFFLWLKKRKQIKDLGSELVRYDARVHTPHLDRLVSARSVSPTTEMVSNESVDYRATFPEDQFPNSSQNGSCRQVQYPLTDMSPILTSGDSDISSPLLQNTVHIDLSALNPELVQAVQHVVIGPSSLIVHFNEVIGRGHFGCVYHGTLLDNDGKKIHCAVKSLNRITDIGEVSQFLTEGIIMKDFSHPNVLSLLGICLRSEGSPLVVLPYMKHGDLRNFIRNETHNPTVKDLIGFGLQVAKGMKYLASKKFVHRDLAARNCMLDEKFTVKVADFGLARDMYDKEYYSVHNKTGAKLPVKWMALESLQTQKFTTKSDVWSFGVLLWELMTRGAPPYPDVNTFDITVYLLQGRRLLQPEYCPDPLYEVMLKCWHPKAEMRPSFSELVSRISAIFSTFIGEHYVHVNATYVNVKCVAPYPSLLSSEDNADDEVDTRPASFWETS
T1 sequence (P06239 whole entry, species assumed, the tested form may be a part): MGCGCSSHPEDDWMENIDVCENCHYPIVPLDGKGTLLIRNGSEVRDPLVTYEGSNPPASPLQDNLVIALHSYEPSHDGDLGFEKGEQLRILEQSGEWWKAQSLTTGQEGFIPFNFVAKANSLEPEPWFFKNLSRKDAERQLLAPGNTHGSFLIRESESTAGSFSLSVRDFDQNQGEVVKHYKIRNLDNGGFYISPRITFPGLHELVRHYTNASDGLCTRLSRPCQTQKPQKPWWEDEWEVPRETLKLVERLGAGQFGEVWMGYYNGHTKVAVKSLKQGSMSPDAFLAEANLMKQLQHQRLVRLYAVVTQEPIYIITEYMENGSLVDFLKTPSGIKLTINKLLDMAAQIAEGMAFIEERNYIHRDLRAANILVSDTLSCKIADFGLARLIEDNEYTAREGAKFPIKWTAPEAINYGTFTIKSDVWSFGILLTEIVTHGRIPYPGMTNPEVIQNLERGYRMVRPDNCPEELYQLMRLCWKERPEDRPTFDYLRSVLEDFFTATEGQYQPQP

Take `COc1cc(CNc2ncnc(Nc3cc(-c4ccco4)n[nH]3)n2)cc(OC)c1OC` [Compound 997]: the IC50 on Lck, at Zap-70, on Itk, on EGFR, on ErbB2 and at Kdr was more than 10.6 µM throughout. In addition, the IC50 on c-Met, at AKT, at IGFR-1 and on PDGFRB was more than 10.6 µM throughout.
As to `c1ccc(CNc2nc3ccccc3n2-c2ncnc(Nc3cccc(Cn4ccnn4)c3)n2)nc1` [Compound 962], the IC50 is 0.841 to 5.05 µM at Lck; more than 9.46 µM at Zap-70; more than 9.46 µM on Itk; 5.05 to 7.36 µM at EGFR; 7.36 to 9.46 µM at ErbB2; less than 0.841 µM on Kdr. Moreover, the IC50 at c-Met is more than 9.46 µM; on AKT, more than 9.46 µM; against IGFR-1, 7.36 to 9.46 µM; on PDGFRB, less than 0.841 µM.
Consider `Fc1ccc(CNc2ncccc2-c2ncnc(Nc3ccc4[nH]ncc4c3)n2)cc1` [Compound 1108], for which the IC50 at Lck is 5.82 to 8.49 µM; on Zap-70, 5.82 to 8.49 µM; on Itk, 5.82 to 8.49 µM; on EGFR, 0.97 to 5.82 µM; at ErbB2 it was more than 10.9 µM; on Kdr, less than 0.97 µM. Besides, the IC50 on c-Met was more than 10.9 µM; at AKT it was 0.97 to 5.82 µM; against IGFR-1, 5.82 to 8.49 µM; on PDGFRB, less than 0.97 µM.
With `COc1ccc(Nc2ncnc(N(C)c3ccc(C)cc3)n2)cc1OC` [Compound 799], the IC50 at Lck is 1.14 to 6.83 µM; at Zap-70, more than 12.8 µM; on Itk, more than 12.8 µM; on EGFR, less than 1.14 µM; on ErbB2, 1.14 to 6.83 µM; on Kdr, 1.14 to 6.83 µM. For the same compound, the IC50 was 1.14 to 6.83 µM on c-Met, more than 12.8 µM at AKT, 1.14 to 6.83 µM on IGFR-1 and 1.14 to 6.83 µM at PDGFRB.
As to `CN(c1cccc(Cl)c1)c1ncnc(Nc2cc(Cl)c(Cl)c(Cl)c2)n1` [Compound 804], the IC50 at Lck, on Zap-70, at Itk, on EGFR, at ErbB2 and at Kdr was more than 10.8 µM throughout. Moreover, the IC50 is more than 10.8 µM on c-Met, more than 10.8 µM on AKT, more than 10.8 µM against IGFR-1 and 8.43 to 10.8 µM on PDGFRB.
Turning to `COC(=O)c1ccc(-c2cc(Nc3ncnc(NCCc4ccc(OC)cc4)n3)[nH]n2)cc1` [Compound 817], the IC50 was more than 10.1 µM on Lck; more than 10.1 µM on Zap-70; more than 10.1 µM on Itk; more than 10.1 µM at EGFR; 0.898 to 5.39 µM on ErbB2; more than 10.1 µM on Kdr. Further, the IC50 on c-Met is more than 10.1 µM; on AKT, more than 10.1 µM; at IGFR-1, more than 10.1 µM; on PDGFRB, 0.898 to 5.39 µM.
With `Cc1ccc2c(c1)CCCN2c1ncnc(Nc2cccc(Cc3nnn[nH]3)c2)n1` [Compound 635], the IC50 was 6.01 to 8.76 µM at Lck; 8.76 to 11.3 µM at Zap-70; more than 11.3 µM on Itk; less than 1 µM at EGFR; less than 1 µM on ErbB2; less than 1 µM at Kdr. Also, the IC50 at c-Met was less than 1 µM; at AKT, more than 11.3 µM; against IGFR-1 it was more than 11.3 µM; at PDGFRB, 1 to 6.01 µM.
Turning to `COc1cc(Nc2ncnc(-c3cccnc3Nc3ccccc3C)n2)cc(OC)c1OC` [Compound 833], the IC50 is less than 0.9 µM on Lck; more than 10.1 µM on Zap-70; more than 10.1 µM on Itk; more than 10.1 µM at EGFR; more than 10.1 µM at ErbB2; less than 0.9 µM at Kdr. In addition, the IC50 at c-Met was more than 10.1 µM; at AKT it was more than 10.1 µM; at IGFR-1 it was more than 10.1 µM; at PDGFRB, less than 0.9 µM.
